Patent publication US6458337B1, “Diagnostic imaging contrast agent with improved in serum relaxivity” (Dibra S.p.A, priority 1996, dated 2002)

Tests used:
[1] = Relaxivity (r1, r2) in saline; assay type: physicochemical; details: NaCl 0.15 M in water, pH 7.3, 20 MHz, 39° C.
Excerpt: (§1) Relaxivity values of the contrast agent of the present invention have been tested either in saline or in human serum obtained by Seronorm™ Human, freeze-dried human serum produced by Nycomed Pharma AS, Oslo, Norway. Serum obtained from said Seronorm™ is substantially equivalent to the fresh one, so its use in the relaxivity determination grants a good picture of the “in vivo” behaviour and, further, an excellent reproducibility of this test.

[2] = Relaxivity (r1, r2) in reconstituted human serum (Seronorm™ Human); assay type: physicochemical; details: Between 0 and 1 mM (Seronorm™ Human), 20 MHz, 39° C.
Excerpt: as §1
The compounds object of the present invention are characterised by very high r1 and r2 relaxivity values. When measured in Seronorm™ Human at 20 MHz, at a temperature of 39° C., and at a concentration comprised from 0 to 1 mM, compounds of the present invention usually have r1 relaxivity equal to or, preferably, higher than 15^s−1mM^−1, thus confirming the formation of unexpectedly strong non-covalent bonds with serum proteins. […] Last, significative amounts of the preferred compounds of the invention have also been found in the urines, showing that, thanks to their binding to HSA, the same are very promising as blood pool diagnostic agents.

- Relaxivity Saline r1 [1]: 5.70 mM⁻¹ s⁻¹
- Relaxivity Serum r1 [2]: 20.1 mM⁻¹ s⁻¹
Structure (SMILES): O=C(O)CN(CCN(CCN(CC(=O)O)CC(=O)O)C(CCCCNC(=O)C(c1ccccc1)c1ccccc1)C(=O)O)CC(=O)O (centres unmarked)
